Target: His-tagged KRAS G12D protein (Homo sapiens, UniProt P01116, G12D)
Assay: biochemical
Details: not given

Sequence of His-tagged KRAS G12D protein (P01116 1-188 isoform P01116-2 G12D): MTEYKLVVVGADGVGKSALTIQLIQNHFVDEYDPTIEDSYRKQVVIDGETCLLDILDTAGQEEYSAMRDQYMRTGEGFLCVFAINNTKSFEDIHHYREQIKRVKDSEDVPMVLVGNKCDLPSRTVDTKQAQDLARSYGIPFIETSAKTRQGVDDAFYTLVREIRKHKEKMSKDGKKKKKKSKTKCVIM

**Q.** For CCc1c(F)ccc2cc(O)cc(-c3ncc4c(N5CCC[C@H](C(N)=O)C5)nc(OC[C@@]56CCCN5C[C@H](F)C6)nc4c3F)c12 [Example 90, (S)-1-(7-(8-Ethyl-7-fluoro-3-hydroxynaphthalen-1-yl)-8-fluoro-2-(((2R,7aS)-2-fluorotetrahydro-1H-pyrrolizin-7a(5H)-yl)methoxy)pyrido[4,3-d]pyrimidin-4-yl)piperidine-3-carboxamide], which IC50 is on record?
**A.** The IC50 was 0.016 µM.

**Q.** With CCc1c(F)ccc2cc(O)cc(-c3ncc4c(N5CCCC(c6c[nH]cn6)C5)nc(OC[C@@]56CCCN5C[C@H](F)C6)nc4c3F)c12 (stereo partly drawn) [Example 106, 4-(4-(3-(1H-Imidazol-4-yl)piperidin-1-yl)-8-fluoro-2-(((2R,7aS)-2-fluorotetrahydro-1H-pyrrolizin-7a(5H)-yl)methoxy)pyrido[4,3-d]pyrimidin-7-yl)-5-ethyl-6-fluoronaphthalen-2-ol] as the molecule, how does the IC50 read?
**A.** The IC50 was 0.01 µM.

**Q.** CCc1c(F)ccc2cc(O)cc(-c3ncc4c(N5CCCC(c6ccn[nH]6)C5)nc(OC[C@@]56CCCN5C[C@H](F)C6)nc4c3F)c12 (stereo partly drawn) [Example 107, 4-(4-(3-(1H-Pyrazol-5-yl)piperidin-1-yl)-8-fluoro-2-(((2R,7aS)-2-fluorotetrahydro-1H-pyrrolizin-7a(5H)-yl)methoxy)pyrido[4,3-d]pyrimidin-7-yl)-5-ethyl-6-fluoronaphthalen-2-ol] was tested. Which IC50 did it give?
**A.** Its IC50 is 0.008 µM.

**Q.** For CCc1c(F)ccc2cc(O)cc(-c3ncc4c(N5CCCC(c6cnco6)C5)nc(OC[C@@]56CCCN5C[C@H](F)C6)nc4c3F)c12 (stereo partly drawn) [Example 108, 5-Ethyl-6-fluoro-4-(8-fluoro-2-(((2R,7aS)-2-fluorotetrahydro-1H-pyrrolizin-7a(5H)-yl)methoxy)-4-(3-(oxazol-5-yl)piperidin-1-yl)pyrido[4,3-d]pyrimidin-7-yl)naphthalen-2-ol], which IC50 is on record?
**A.** Its IC50 is 0.011 µM.

**Q.** How did the IC50 turn out when CCc1c(F)ccc2cc(O)cc(-c3ncc4c(N5CC=CC(O)C5)nc(OC[C@@]56CCCN5C[C@H](F)C6)nc4c3F)c12 (stereo partly drawn) [Example 109, 1-(7-(8-Ethyl-7-fluoro-3-hydroxynaphthalen-1-yl)-8-fluoro-2-(((2R,7aS)-2-fluorotetrahydro-1H-pyrrolizin-7a(5H)-yl)methoxy)pyrido[4,3-d]pyrimidin-4-yl)-1,2,3,6-tetrahydropyridin-3-ol] was run?
**A.** The IC50 was 0.012 µM.

**Q.** For CCc1c(F)ccc2cc(O)cc(-c3ncc4c(N5CCCC(NS(C)(=O)=O)C5)nc(OC[C@@]56CCCN5C[C@H](F)C6)nc4c3F)c12 (stereo partly drawn) [Example 110, N-(1-(7-(8-Ethyl-7-fluoro-3-hydroxynaphthalen-1-yl)-8-fluoro-2-(((2R,7aS)-2-fluorotetrahydro-1H-pyrrolizin-7a(5H)-yl)methoxy)pyrido[4,3-d]pyrimidin-4-yl)piperidin-3-yl)methanesulfonamide], which IC50 is on record?
**A.** The IC50 was 0.006 µM.

**Q.** How did the IC50 turn out when CCc1c(F)ccc2cc(O)cc(-c3ncc4c(N5C[C@H]6COC[C@H]6C5)nc(OC[C@@]56CCCN5C[C@H](F)C6)nc4c3F)c12 [Example 122, 5-Ethyl-6-fluoro-4-(8-fluoro-2-(((2R,7aS)-2-fluorotetrahydro-1H-pyrrolizin-7a(5H)-yl)methoxy)-4-((3aR,6aS)-tetrahydro-1H-furo[3,4-c]pyrrol-5(3H)-yl)pyrido[4,3-d]pyrimidin-7-yl)naphthalen-2-ol] was run?
**A.** Its IC50 is 0.033 µM.

**Q.** For CCc1c(F)ccc2cc(O)cc(-c3ncc4c(N5CCCC(C(C)(C)O)C5)nc(OC[C@@]56CCCN5C[C@H](F)C6)nc4c3F)c12 (stereo partly drawn) [Example 124, 5-Ethyl-6-fluoro-4-(8-fluoro-2-(((2R,7aS)-2-fluorotetrahydro-1H-pyrrolizin-7a(5H)-yl)methoxy)-4-(3-(2-hydroxypropan-2-yl)piperidin-1-yl)pyrido[4,3-d]pyrimidin-7-yl)naphthalen-2-ol], which IC50 is on record?
**A.** The IC50 was 0.07 µM.

**Q.** Which IC50 does the source give for CCc1c(F)ccc2cc(O)cc(-c3ncc4c(N5CCCC[C@H](O)C5)nc(OC[C@@]56CCCN5C[C@H](F)C6)nc4c3F)c12 [Example 130, (S)-1-(7-(8-Ethyl-7-fluoro-3-hydroxynaphthalen-1-yl)-8-fluoro-2-(((2R,7aS)-2-fluorotetrahydro-1H-pyrrolizin-7a(5H)-yl)methoxy)pyrido[4,3-d]pyrimidin-4-yl)azepan-3-ol] here?
**A.** Its IC50 is 0.004 µM.

**Q.** CCc1c(F)ccc2cc(O)cc(-c3ncc4c(N5CCCC[C@@H](N)C5)nc(OC[C@@]56CCCN5C[C@H](F)C6)nc4c3F)c12 [Example 131, 4-(4-((R)-3-Aminoazepan-1-yl)-8-fluoro-2-(((2R,7aS)-2-fluorotetrahydro-1H-pyrrolizin-7a(5H)-yl)methoxy)pyrido[4,3-d]pyrimidin-7-yl)-5-ethyl-6-fluoronaphthalen-2-ol] was tested. Which IC50 did it give?
**A.** The IC50 was 0.004 µM.

**Q.** CCc1c(F)ccc2cc(O)cc(-c3ncc4c(N5CCCC(C)(O)CC5)nc(OC[C@@]56CCCN5C[C@H](F)C6)nc4c3F)c12 (stereo partly drawn) [Example 142, 1-(7-(8-Ethyl-7-fluoro-3-hydroxynaphthalen-1-yl)-8-fluoro-2-(((2R,7aS)-2-fluorotetrahydro-1H-pyrrolizin-7a(5H)-yl)methoxy)pyrido[4,3-d]pyrimidin-4-yl)-4-methylazepan-4-ol] was tested. Which IC50 did it give?
**A.** Its IC50 is 0.014 µM.

**Q.** C=C1CCCN(c2nc(OC[C@@]34CCCN3C[C@H](F)C4)nc3c(F)c(-c4cc(O)cc5ccc(F)c(CC)c45)ncc23)CC1 [Example 144, 5-Ethyl-6-fluoro-4-(8-fluoro-2-(((2R,7aS)-2-fluorotetrahydro-1H-pyrrolizin-7a(5H)-yl)methoxy)-4-(4-methyleneazepan-1-yl)pyrido[4,3-d]pyrimidin-7-yl)naphthalen-2-ol] was tested. Which IC50 did it give?
**A.** Its IC50 is 0.006 µM.

**Q.** Which IC50 does the source give for CCc1c(F)ccc2cc(O)cc(-c3ncc4c(N5CCCC(C)(OC)C5)nc(OC[C@@]56CCCN5C[C@H](F)C6)nc4c3F)c12 (stereo partly drawn) [Example 148, 5-Ethyl-6-fluoro-4-(8-fluoro-2-(((2R,7aS)-2-fluorotetrahydro-1H-pyrrolizin-7a(5H)-yl)methoxy)-4-(3-methoxy-3-methylpiperidin-1-yl)pyrido[4,3-d]pyrimidin-7-yl)naphthalen-2-ol] here?
**A.** Its IC50 is 0.038 µM.

**Q.** For CCc1c(F)ccc2cc(O)cc(-c3ncc4c(N5CCCC(C#N)C5)nc(OC[C@@]56CCCN5C[C@H](F)C6)nc4c3F)c12 (stereo partly drawn) [Example 151, 1-(7-(8-Ethyl-7-fluoro-3-hydroxy-naphthalen-1-yl)-8-fluoro-2-(((2R,7aS)-2-fluorotetrahydro-1H-pyrrolizin-7a(5H)-yl)methoxy)pyrido[4,3-d]pyrimidin-4-yl)piperidine-3-carbonitrile], which IC50 is on record?
**A.** The IC50 was 0.011 µM.

**Q.** CCc1c(F)ccc2cc(O)cc(-c3ncc4c(N5C[C@H](O)C[C@H](C(F)(F)F)C5)nc(OC[C@@]56CCCN5C[C@H](F)C6)nc4c3F)c12 [Example 154, (3R,5S)-1-(7-(8-Ethyl-7-fluoro-3-hydroxy-naphthalen-1-yl)-8-fluoro-2-(((2R,7aS)-2-fluorotetrahydro-1H-pyrrolizin-7a(5H)-yl)methoxy)pyrido[4,3-d]pyrimidin-4-yl)-5-(trifluoromethyl) piperidin-3-ol] was tested. Which IC50 did it give?
**A.** The IC50 was 0.016 µM.

**Q.** How did the IC50 turn out when CCc1c(F)ccc2cc(O)cc(-c3ncc4c(N5CCCC(S(=O)(=O)C(F)F)C5)nc(OC[C@@]56CCCN5C[C@H](F)C6)nc4c3F)c12 (stereo partly drawn) [Example 161, 4-(4-(3-((Difluoromethyl)sulfonyl)piperidin-1-yl)-8-fluoro-2-(((2R,7aS)-2-fluorotetrahydro-1H-pyrrolizin-7a(5H)-yl)methoxy)pyrido[4,3-d]pyrimidin-7-yl)-5-ethyl-6-fluoronaphthalen-2-ol] was run?
**A.** The IC50 was 0.076 µM.

Test system: Phosphorylation of ERK1/2 in AsPC-1 cells
Assay: Phospho-ERK1/2 MSD Assay
Assay type: cell-based
Details: Homo sapiens, ASPC1, 2 h, read-out: 2 h p-ERK (AsPC-1 cells), IC50, AsPC-1 cells, 2 h compound treatment
Procedure: Sixteen hours prior to compound treatment, AsPC-1 cells were seeded in 96-well cell culture plates at a density of 25,000 cells/well and incubated at 37° C., 5% CO2. A compound dose-response titration was diluted in growth media, added to appropriate wells of a cell culture plate, and then incubated at 37° C., 5% CO2 for 2 hours.

**Q.** With CCc1c(F)ccc2cc(O)cc(-c3ncc4c(N5CCC[C@@](C)(N)C5)nc(OCC56CCCN5CC(F)C6)nc4c3F)c12 (stereo in doubt) [Example 46, 4-(4-((R)-3-Amino-3-methylpiperidin-1-yl)-8-fluoro-2-(((2R,7aS)-2-fluorotetrahydro-1H-pyrrolizin-7a(5H)-yl)methoxy)pyrido[4,3-d]pyrimidin-7-yl)-5-ethyl-6-fluoronaphthalen-2-ol] as the molecule, how does the IC50 read?
**A.** Its IC50 is 0.213 µM.

**Q.** For CCc1c(F)ccc2cc(O)cc(-c3ncc4c(N5CCCC(OC)C5)nc(OC[C@@]56CCCN5C[C@H](F)C6)nc4c3F)c12 (stereo partly drawn) [Example 15, 5-Ethyl-6-fluoro-4-(8-fluoro-2-(((2R,7aS)-2-fluorotetrahydro-1H-pyrrolizin-7a(5H)-yl)methoxy)-4-(3-methoxypiperidin-1-yl)pyrido[4,3-d]pyrimidin-7-yl)naphthalen-2-ol], which IC50 is on record?
**A.** The IC50 was 1.48 µM.

**Q.** Which IC50 does the source give for CCc1c(F)ccc2cc(O)cc(-c3ncc4c(N5CCC(O)C5)nc(OC[C@@]56CCCN5C[C@H](F)C6)nc4c3F)c12 (stereo partly drawn) [Example 16, 1-(7-(8-Ethyl-7-fluoro-3-hydroxynaphthalen-1-yl)-8-fluoro-2-(((2R,7aS)-2-fluorotetrahydro-1H-pyrrolizin-7a(5H)-yl)methoxy)pyrido[4,3-d]pyrimidin-4-yl)pyrrolidin-3-ol] here?
**A.** Its IC50 is 2.86 µM.

**Q.** How did the IC50 turn out when CCc1c(F)ccc2cc(O)cc(-c3ncc4c(N5C[C@H](O)CC[C@H]5C)nc(OC[C@@]56CCCN5C[C@H](F)C6)nc4c3F)c12 [Example 36, (3R,6R)-1-(7-(8-Ethyl-7-fluoro-3-hydroxynaphthalen-1-yl)-8-fluoro-2-(((2R,7aS)-2-fluorotetrahydro-1H-pyrrolizin-7a(5H)-yl)methoxy)pyrido[4,3-d]pyrimidin-4-yl)-6-methyl-piperidin-3-ol] was run?
**A.** Its IC50 is 0.344 µM.

Same assay, conditions: read-out: 2 h p-ERK (AsPC-1 cells), IC50; AsPC-1 cells, 2 h compound treatment

**Q.** CCc1c(F)ccc2cc(O)cc(-c3ncc4c(N5CCCC(O)(CF)C5)nc(OC[C@@]56CCCN5C[C@H](F)C6)nc4c3F)c12 (single isomer, unassigned) [Example 171] was tested. Which IC50 did it give?
**A.** The IC50 was 0.002 µM.

**Q.** Which IC50 does the source give for CCc1c(F)ccc2cc(O)cc(-c3ncc4c(N5CCCC(O)(CF)C5)nc(OC[C@@]56CCCN5C[C@H](F)C6)nc4c3F)c12 (single isomer, unassigned) [Example 172] here?
**A.** The IC50 was 0.086 µM.

From patent US20250034167A1, “HETEROCYCLIC COMPOUNDS AND METHODS OF USE” (AMGEN INC., priority 2021, published 2025)
